Data set [1] has as its target T1, TDP1(148–608) (Homo sapiens, UniProt Q9NUW8).
T1 construct: SPR experiments were recorded for the truncated TDP1(148–608) and the β-lactam compound
The experiment in a line: gel-based fluorescence assay with truncated TDP1 compared with full-length TDP1. The class given is biochemical. The method, then: (§1) The inhibition of TDP1 and TDP2 were conducted according to gel-based methods as previously described[21]–[24],[45]. Briefly, 1 nM of the DNA substrate (N14Y, 5´Cy5-[…]-pY-3´) was incubated with 40 pM full-length recombinant TDP1 or TDP1 (148–608) in the absence or presence of inhibitors for 15 min at room temperature in TDP1 reaction buffer (50 mM Tris-HCl, pH 7.5, 80 mM KCl, 2 mM EDTA, 1 mM DTT, 40 µg/mL BSA and 0.01% Tween 20). The inhibition of TDP2 was also conducted by using similar conditions. […] The reactions of both TDP1 and TDP2 were stopped by adding an equal volume of gel loading buffer (99.5% (v/v) formamide, 5 mM EDTA). The samples were then subjected to a 20% denaturing PAGE gel followed by gel scanning using a Typhoon FLA 9500 scanner (GE Healthcare). The IC50 values of the TDP1 inhibitors were calculated by comparing the percentage of the cleavage product (N14P, 5´Cy5-[…]-p-3´) produced to that in the DMSO control. The IC50 values of the TDP2 inhibitors were calculated by comparing the percentage of the cleavage product (PN18, 5’-p-[…]-Cy5-3’) produced to that in the DMSO control.

Another data set deals with T2, recombinant TDP1 (Homo sapiens, UniProt Q9NUW8).
T2 construct: incubated with 40 pM full-length recombinant TDP1 or TDP1 (148–608)
The experiment in a line: in vitro gel-based fluorescence TDP1 catalytic assay. The class given is biochemical. The conditions noted are these: TDP1 IC50, 40 pM recombinant TDP1, 1 nM N14Y DNA substrate, 15 min, room temperature. Here is the method:
We subjected select virtual screen hits to evaluation of TDP1 inhibitory potencies using in vitro gel-based fluorescence TDP1 catalytic assays (Fig. 2). […] To further explore this class of compounds, we purchased from TargetMol a library of approximately 90 β-lactams as 10 mM solutions in DMSO. […] We examined TDP1 inhibitory potencies of the compounds using the in vitro gel-based fluorescence assays as previously described[21]–[24]. Briefly, a 5’-Cy5-labeled DNA substrate (N14Y, 5’-Cy5-[…]-pY-3’, 1 nM) was incubated in TDP1 reaction buffer with recombinant TDP1 or truncated TDP1(148–608) (40 pM) in the absence or presence of inhibitors for 15 min at room temperature. […] The TDP1 inhibition IC50 values were calculated based on gel images of the cleavage product (N14P, 5’-Cy5-[…]-p-3’) (Fig. 3A and Table S2).
as §1

Data set [2] relates to human colon cancer cell line HCT116. The experiment in a line: Cell viability, synergistic effect with camptothecin (CPT). The class given is cell-based.
Description: We undertook further assays to determine whether the β-lactams could act in cells as TDP1 inhibitors.
The synergistic effects of the TDP1 inhibitors with CPT were tested in human colon cancer cell line HCT116 based on cell viability[22],[23]. Cells were first seeded in a 384-well black-clear plate until 30% confluency and then incubated with a serial dilution of CPT at the range of 0-100 nM (0, 12.5, 25, 50, 100 nM) in the present or the absence of desired concentrations of TDP1 inhibitors for 72 h at 37 °C. DMSO was used as control. Viable cell numbers were counted from the brightfield images taken by Biotek Cytation 5.
A further data set has as its target T3, recombinant TDP2 (Homo sapiens, UniProt O95551).
T3 sequence (O95551 1-362): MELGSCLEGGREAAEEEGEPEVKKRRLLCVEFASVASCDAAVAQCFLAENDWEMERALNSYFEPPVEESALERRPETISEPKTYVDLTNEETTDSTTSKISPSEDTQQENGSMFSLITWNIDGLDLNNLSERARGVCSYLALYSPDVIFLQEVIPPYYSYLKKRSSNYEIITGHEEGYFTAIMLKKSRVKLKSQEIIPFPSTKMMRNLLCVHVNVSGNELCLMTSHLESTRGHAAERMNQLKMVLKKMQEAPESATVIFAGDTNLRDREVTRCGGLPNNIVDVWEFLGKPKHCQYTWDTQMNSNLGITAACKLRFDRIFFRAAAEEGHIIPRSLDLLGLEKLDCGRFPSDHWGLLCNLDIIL
The experiment in a line: in vitro gel-based fluorescence TDP2 assay (counterscreen). The format is biochemical. The following applies: TDP2 IC50, 40 pM recombinant TDP2, 1 nM YN18 DNA substrate, 15 min, RT. The method, then: as §1

Data set [3] has as its target T1, TDP1(148–608). The experiment in a line: Intact mass and PTM-mapping mass spectrometry for covalent modification. The following applies: enzyme-to-compound ratios 1:125 to 1:1000. Here is the method:
We also digested the TDP1 following incubation with the compounds.

The target of data set [4] is T1, TDP1(148–608). The experiment in a line: Surface plasmon resonance (SPR) binding analysis. An excerpt: A central mechanism of action of β-lactam antibiotics involves covalent modification of serine residues in PBPs. However, β-lactams are also known to covalently modify proteins more broadly[35],[42]. Mass spectroscopy has proven to be invaluable in characterizing protein modification by β-lactams[43],[44]. […] We evaluated cephalosporin C (11) in SPR studies. For SPR, we immobilized the TDP1(148–608) on an SPR chip and measured the binding of compounds as a function of concentration.
SPR experiments were recorded for the truncated TDP1(148–608) and the β-lactam compound with Biacore T200 system (GE Healthcare). Using the amine coupling kit (Cytiva), 11,000 RU of TDP1 was covalently immobilized on a CM5 chip (Cytiva) via amine coupling. The β-lactam compounds were prepared in HBS-P buffer (Cytiva). Experiments in high-performance mode was carried out using five injections (30 µL/min) of increasing concentrations of the β-lactam (50 nM – 25 µM) passed over the sensor chip for 180 s, followed by a 1200 s dissociation. Buffer and reference signals were subtracted and binding affinities (Kd) were determined using the Biacore T200 evaluation software (GE Healthcare).
(In general: Surface plasmon resonance follows binding to a sensor surface in real time, without labels.)

“And” between values parts separate entries of the source, which are not always exact repeats. Identical values can stand only once.

T1 sequence (Q9NUW8 148-608): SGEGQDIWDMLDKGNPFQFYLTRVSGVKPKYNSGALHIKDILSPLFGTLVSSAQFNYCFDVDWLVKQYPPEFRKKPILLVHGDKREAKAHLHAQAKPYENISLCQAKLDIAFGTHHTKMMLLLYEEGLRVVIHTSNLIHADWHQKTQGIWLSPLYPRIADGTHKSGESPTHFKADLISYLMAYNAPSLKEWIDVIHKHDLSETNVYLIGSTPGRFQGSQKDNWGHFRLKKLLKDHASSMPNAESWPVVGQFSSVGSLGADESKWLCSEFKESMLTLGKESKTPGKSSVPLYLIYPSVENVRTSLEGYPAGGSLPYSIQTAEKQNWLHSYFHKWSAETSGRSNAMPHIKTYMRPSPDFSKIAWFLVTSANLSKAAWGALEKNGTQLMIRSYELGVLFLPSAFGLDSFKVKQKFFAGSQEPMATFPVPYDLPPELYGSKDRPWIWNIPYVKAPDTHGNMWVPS
T2 sequence (Q9NUW8 whole entry): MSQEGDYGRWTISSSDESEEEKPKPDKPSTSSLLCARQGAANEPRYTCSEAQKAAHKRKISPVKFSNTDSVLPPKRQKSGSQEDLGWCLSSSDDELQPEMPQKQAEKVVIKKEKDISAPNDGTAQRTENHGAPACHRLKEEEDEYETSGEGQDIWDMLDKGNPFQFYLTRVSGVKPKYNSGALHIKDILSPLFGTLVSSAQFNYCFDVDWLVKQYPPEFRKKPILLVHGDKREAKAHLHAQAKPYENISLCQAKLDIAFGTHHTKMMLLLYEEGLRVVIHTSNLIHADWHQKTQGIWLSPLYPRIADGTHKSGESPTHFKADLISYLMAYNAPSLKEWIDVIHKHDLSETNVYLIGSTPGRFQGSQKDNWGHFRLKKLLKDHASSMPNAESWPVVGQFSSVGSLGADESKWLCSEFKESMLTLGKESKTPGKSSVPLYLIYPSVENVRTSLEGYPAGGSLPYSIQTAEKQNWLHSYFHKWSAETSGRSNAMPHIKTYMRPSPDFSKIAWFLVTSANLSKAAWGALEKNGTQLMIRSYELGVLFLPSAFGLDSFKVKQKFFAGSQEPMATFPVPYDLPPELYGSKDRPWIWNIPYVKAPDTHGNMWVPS

What is called IC50 is the concentration needed to halve the response being measured. For orientation: Kd means the constant that tells how readily two partners part at equilibrium. A low value points to higher affinity. Turning to `CC(=O)OCC1=C(C(=O)O)N2C(=O)[C@@H](NC(=O)CCC[C@@H](N)C(=O)O)[C@H]2SC1` [compound 11, cephalosporin C], the “loss of inhibitory potencies with only the C-terminal residues TDP1(148–608) compared with full-length TDP1” value at TDP1(148–608) [1] is reported as “more than 50 fold”. Also, the IC50 at recombinant TDP1 is 4.43 µM and 4.4 µM; at recombinant TDP2, greater than 100 µM. Further, the “effect in combination with TOP1 inhibitor CPT on cell viability” value in data set [2] (HCT116, 25 µM, CPT 0-100 nM, 72 h) is “acted synergistically”. Besides, in data set [2] (without CPT), the “cytotoxicity on its own” value is given as “no cytotoxicity”. For the same compound, the “covalent modification of TDP1 (intact mass analysis)” value on TDP1(148–608) [3] is reported as “not able to detect covalent modification of TDP1”. For the same compound, the “binding mode from SPR (compound eluted off the chip without impacting binding capacity)” value at TDP1(148–608) [4] is “more likely bound non-covalently”. At TDP1(148–608) [4] (TDP1(148–608) immobilized on CM5 chip, 50 nM – 25 µM compound), the Kd amounted to 11.6 µM.

The record behind these values is article PMC12280126, “Potent β-lactam-based tyrosyl-DNA phosphodiesterase 1 inhibitors identified by a virtual screen” (Scientific Reports, 2025).
